One assay has as its system Escherichia coli. The assay can be described thus: Antibacterial activity against Escherichia coli after 24 hrs by broth microdilution method. Type of assay: functional.
Assay [1] deals with Staphylococcus epidermidis. The assay can be described thus: Antibacterial activity against Staphylococcus epidermis after 24 hrs by broth microdilution method. It counts as functional.
Assay [2] deals with Jurkat. The assay can be described thus: (§1) Effect on NF-kappaB expressed in Jurkat 5.1 cells assessed as inhibition of TNF-alpha-induced HIV1-LTR transactivation preincubated for 15 mins by luciferase gene reporter assay. It counts as cell-based.
The nature of assay [3]: as §1. Type of assay: cell-based.
The subject of assay [4] is Jurkat. The assay can be described thus: Effect on NF-kappaB expressed in Jurkat 5.1 cells assessed as inhibition of TNF-alpha-induced IkappaBalpha phosphorylation at 10 uM preincubated for 15 mins by Western blot. It counts as cell-based.
A short description of assay [5]: Effect on NF-kappaB expressed in HeLa-Tet-On cells assessed as inhibition of doxycyclin-induced HIV1-LTR transactivation preincubated for 15 mins by luciferase gene reporter assay. It counts as cell-based.
Assay [6] relates to Jurkat. The assay can be described thus: Effect on NF-kappaB expressed in Jurkat 5.1 cells assessed as inhibition of TNF-alpha-induced IkappaBalpha degradation at 10 uM preincubated for 15 mins by Western blot. It counts as cell-based.

Each structure is given as a SMILES string. In brackets after ≈: the same amount, converted by molar mass. Activity calls are given as the source filed them. The calls are words filed in the database; no cut-off is given here.

With `CC1(C)S[C@@H]2[C@H](NC(=O)[C@H](N)c3ccccc3)C(=O)N2[C@H]1C(=O)O` [AMPICILLIN], the MIC with Escherichia coli turned out to be 5 µg/mL (≈ 14.3 µM); in assay [1], 1 µg/mL (≈ 2.86 µM).

In the case of `CC(C)=CCC/C(C)=C/CC/C(C)=C/Cc1cc(C(=O)O)ccc1O`, the result with Jurkat [2] was inactive.

In the case of `CC(C)=CCC/C(C)=C/CCC1(C)CC(=O)c2cc(C(=O)O)ccc2O1` (configuration not stated), the outcome in the assay on Jurkat [2] was inactive. Besides, the MIC turned out to be 100 µg/mL (≈ 281 µM) against Escherichia coli and 50 µg/mL (≈ 140 µM) in assay [1].

Take `CCCCCCCCC/C=C/CCCc1ccc(O)cc1` [OBLIQUOL A]: the values for the MIC (against Escherichia coli; in assay [1]) were 5 µg/mL (≈ 17.3 µM) and 2.5 µg/mL (≈ 8.67 µM), respectively.

In the case of `CCCCCCCCC/C=C/CCCc1ccc(O)c(O)c1` [OBLIQUOL B], the IC50 in assay [3] was determined as 5 µM. In addition, the outcome in the assay on Jurkat [4] and with Jurkat [6] was Active. The MIC (with Escherichia coli; in assay [1]) was 5 µg/mL (≈ 16.4 µM) throughout. For the same compound, the result in assay [5] was inactive.

For `COc1ccc(/C=C/C(=O)c2c(O)cc(OC)c(OC)c2OC)cc1OC`, in the assay with Jurkat [2], the result was inactive. The MIC (in the assay on Escherichia coli; in assay [1]) was 10 µg/mL (≈ 26.7 µM) throughout.

The values are drawn from ChEMBL document CHEMBL1157155, “Bioactive alkenylphenols from Piper obliquum” (Bioorg Med Chem, 2008).
